Laboratory results from US8309546B2, “Morpholinopurine derivatives” (Daiichi Sankyo Company, Limited, priority 2008, dated 2012).

Key:
[1] = tested on: human endometrial cancer cell strain AN3CA; assay: Cell growth inhibition test (MTT), AN3CA; assay type: cell-based; conditions: AN3-CA, 72 h, 3 days culture, read-out: concentration exhibiting anti-cell effect (GI50)
In short: (§1)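 MTT read-out at 540 nm after 4 h formazan formation gives living cell count following 3-day compound exposure at 37° C, 5% CO2. Seeding: 5000 AN3CA, 1000 IGROV1, 5000 HT29 cells/well. Growth rate T/C % = 100×[(B−C)/(A−C)], with C taken before dosing; GI50 = concentration giving 50% growth.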

[2] = tested on: human ovary cancer cell strain IGROV1; assay: Cell growth inhibition test (MTT), IGROV1; assay type: cell-based; conditions: IGROV-1, 72 h, IGROV1, 3 days culture, read-out: concentration exhibiting anti-cell effect (GI50)
In short: as §1

[3] = tested on: Akt (threonine 308) phosphorylation in AN3CA tumor; assay: Akt phosphorylation inhibition assay in xenograft; assay type: in vivo, female nude mouse; conditions: Mus musculus, AN3-CA, oral, 6 hr after dosing
In short: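 AN3CA human endometrial cancer cells grown as subcutaneous xenografts in female nude mice; compound dosed orally at a set concentration, tumors excised after a set time. Tumor lysates at equal protein were western blotted for p-Akt(T308) and p-S6(S235/236). Inhibition (%) = 100−100×(treated/untreated phospho signal).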

SMILES	GI50 [1] [µM]	GI50 [2] [µM]	inhibition at 10 mg/kg [3] [%]
CC(=O)N1CCN(c2nc3c(N4CCOCC4)nc(-c4cnc(N)nc4)nc3n2CC(C)C)C[C@H]1C [Example 99, 5-{8-[(3R)-4-Acetyl-3-methylpiperazin-1-yl]-9-isobutyl-6-morpholin-4-yl-9H-purin-2-yl}pyrimidin-2-amine]	≤ 5	≤ 5	30 to 60
CC(C)Cn1c(N2CCN(C=O)[C@H](C)C2)nc2c(N3CCOCC3)nc(-c3cnc(N)nc3)nc21 [Example 100, (2R)-4-[2-(2-Aminopyrimidin-5-yl)-9-isobutyl-6-morpholin-4-yl-9H-purin-8-yl]-2-methylpiperazine-1-carboaldehyde]	≤ 5	≤ 5	> 60
CC(=O)N1CCN(c2nc3c(N4CCOCC4)nc(-c4cnc(N)nc4)nc3n2CC(C)C)C[C@@H]1C [Example 101, 5-{8-[(3S)-4-Acetyl-3-methylpiperazin-1-yl]-9-isobutyl-6-morpholin-4-yl-9H-purin-2-yl}pyrimidin-2-amine]	≤ 5	≤ 5	> 60
CC(C)Cn1c(N2CCN(C=O)[C@@H](C)C2)nc2c(N3CCOCC3)nc(-c3cnc(N)nc3)nc21 [Example 102, (2S)-4-[2-(2-Aminopyrimidin-5-yl)-9-isobutyl-6-morpholin-4-yl-9H-purin-8-yl]-2-methylpiperazine-1-carboaldehyde]	≤ 5	≤ 5	> 60
CC(C)Cn1c(N2CCN(C(=O)[C@H](C)O)[C@H](C)C2)nc2c(N3CCOCC3)nc(-c3cnc(N)nc3)nc21 [Example 103, (2S)-1-{(2R)-4-[2-(2-Aminopyrimidin-5-yl)-9-isobutyl-6-morpholin-4-yl-9H-purin-8-yl]-2-methylpiperazin-1-yl}-1-oxopropan-2-ol]	≤ 5	≤ 5	> 60
CC(C)Cn1c(N2CCN(C(=O)[C@H](C)O)[C@@H](C)C2)nc2c(N3CCOCC3)nc(-c3cnc(N)nc3)nc21 [Example 104, (2S)-1-{(2S)-4-[2-(2-Aminopyrimidin-5-yl)-9-isobutyl-6-morpholin-4-yl-9H-purin-8-yl]-2-methylpiperazin-1-yl}-1-oxopropan-2-ol]	≤ 5	≤ 5	> 60
CNc1ncc(-c2nc(N3CCOCC3)c3nc(N4CCN(S(C)(=O)=O)[C@@H](C)C4)n(CC(F)(F)F)c3n2)cn1 [Example 105, N-Methyl-5-{8-[(3S)-3-methyl-4-(methylsulfonyl)piperazin-1-yl]-6-morpholin-4-yl-9-(2,2,2-trifluoroethyl)-9H-purin-2-yl}pyrimidin-2-amine]	≤ 5	≤ 5	30 to 60
CNc1ncc(-c2nc(N3CCOCC3)c3nc(N4CCN(S(C)(=O)=O)[C@H](C)C4)n(CC(F)(F)F)c3n2)cn1 [Example 106, N-Methyl-5-{8-[(3R)-3-methyl-4-(methylsulfonyl)piperazin-1-yl]-6-morpholin-4-yl-9-(2,2,2-trifluoroethyl)-9H-purin-2-yl}pyrimidin-2-amine]	≤ 5	≤ 5	> 60
CNc1ncc(-c2nc(N3CCOCC3)c3nc(N4CCN(C(C)=O)[C@@H](C)C4)n(CC(F)(F)F)c3n2)cn1 [Example 107, 5-{8-[(3S)-4-Acetyl-3-methylpiperazin-1-yl]-6-morpholin-4-yl-9-(2,2,2-trifluoroethyl)-9H-purin-2-yl}-N-methylpyrimidin-2-amine]	≤ 5	≤ 5	> 60
CNc1ncc(-c2nc(N3CCOCC3)c3nc(N4CCN(C(C)=O)[C@H](C)C4)n(CC(F)(F)F)c3n2)cn1 [Example 108, 5-{8-[(3R)-4-Acetyl-3-methylpiperazin-1-yl]-6-morpholin-4-yl-9-(2,2,2-trifluoroethyl)-9H-purin-2-yl}-N-methylpyrimidin-2-amine]	≤ 5	≤ 5	> 60
C[C@H](O)C(=O)N1CCN(c2nc3c(N4CCOCC4)nc(-c4cnc(N)nc4)nc3n2CC(F)(F)F)C[C@@H]1C [Example 109, (2S)-1-{(2S)-4-[2-(2-Aminopyrimidin-5-yl)-6-morpholin-4-yl-9-(2,2,2-trifluoroethyl)-9H-purin-8-yl]-2-methylpiperazin-1-yl}-1-oxopropan-2-ol]	≤ 5	≤ 5	> 60
C[C@H](O)C(=O)N1CCN(c2nc3c(N4CCOCC4)nc(-c4cnc(N)nc4)nc3n2CC(F)(F)F)C[C@H]1C [Example 110, (2S)-1-{(2R)-4-[2-(2-Aminopyrimidin-5-yl)-6-morpholin-4-yl-9-(2,2,2-trifluoroethyl)-9H-purin-8-yl]-2-methylpiperazin-1-yl}-1-oxopropan-2-ol]	≤ 5	≤ 5	> 60
C[C@H]1CN(c2nc3c(N4CCOCC4)nc(-c4cnc(N)nc4)nc3n2CC(F)(F)F)CCN1C=O [Example 111, (2S)-4-[2-(2-Aminopyrimidin-5-yl)-6-morpholin-4-yl-9-(2,2,2-trifluoroethyl)-9H-purin-8-yl]-2-methylpiperazine-1-carboaldehyde]	≤ 5	≤ 5	> 60
C[C@@H]1CN(c2nc3c(N4CCOCC4)nc(-c4cnc(N)nc4)nc3n2CC(F)(F)F)CCN1C=O [Example 112, (2R)-4-[2-(2-Aminopyrimidin-5-yl)-6-morpholin-4-yl-9-(2,2,2-trifluoroethyl)-9H-purin-8-yl]-2-methylpiperazine-1-carboaldehyde]	≤ 5	≤ 5	> 60
C[C@@H](O)C(=O)N1CCN(c2nc3c(N4CCOCC4)nc(-c4cnc(N)nc4)nc3n2CC2CC2)C[C@@H]1C [Example 113, (2R)-1-{(2S)-4-[2-(2-Aminopyrimidin-5-yl)-9-(cyclopropylmethyl)-6-morpholin-4-yl-9H-purin-8-yl]-2-methylpiperazin-1-yl}-1-oxopropan-2-ol]	≤ 5	≤ 5	> 60
C[C@@H]1CN(c2nc3c(N4CCOCC4)nc(-c4cnc(N)nc4)nc3n2CC2CC2)CCN1C(=O)[C@@H](C)O [Example 114, (2R)-1-{(2R)-4-[2-(2-Aminopyrimidin-5-yl)-9-(cyclopropylmethyl)-6-morpholin-4-yl-9H-purin-8-yl]-2-methylpiperazin-1-yl}-1-oxopropan-2-ol]	≤ 5	≤ 5	> 60
CC(=O)N1[C@H](C)CN(c2nc3c(N4CCOCC4)nc(-c4cnc(N)nc4)nc3n2CC(F)(F)F)C[C@@H]1C [Example 115, 5-[8-(4-Acetyl-cis-3,5-dimethylpiperazin-1-yl)-6-morpholin-4-yl-9-(2,2,2-trifluoroethyl)-9H-purin-2-yl]pyrimidin-2-amine]	≤ 5	≤ 5	> 60
C[C@@H]1CN(c2nc3c(N4CCOCC4)nc(-c4cnc(N)nc4)nc3n2CC(F)(F)F)C[C@H](C)N1C=O [Example 116, 4-[2-(2-Aminopyrimidin-5-yl)-6-morpholin-4-yl-9-(2,2,2-trifluoroethyl)-9H-purin-8-yl]-cis-2,6-dimethylpiperazine-1-carboaldehyde]	≤ 5	≤ 5	> 60
CCC(=O)N1CCN(c2nc3c(N4CCOCC4)nc(-c4cnc(N)nc4)nc3n2CC(F)(F)F)CC1 [Example 117, 5-[6-Morpholin-4-yl-8-(4-propionylpiperazin-1-yl)-9-(2,2,2-trifluoroethyl)-9H-purin-2-yl]pyrimidin-2-amine]	≤ 5	≤ 5	30 to 60
CC(=O)N1CCN(c2nc3c(N4CCOCC4)nc(-c4cnc(N)nc4)nc3n2CC(F)(F)F)CC12CC2 [Example 119, 5-[8-(4-Acetyl-4,7-diazaspiro[2.5]oct-7-yl)-6-morpholin-4-yl-9-(2,2,2-trifluoroethyl)-9H-purin-2-yl]pyrimidin-2-amine]	≤ 5	≤ 5	30 to 60
CC(=O)N1CCN(c2nc3c(N4CCOC[C@@H]4C)nc(-c4cnc(N)nc4C)nc3n2CC2CC2)CC1 [Example 128, 5-{8-(4-acetylpiperazin-1-yl)-9-(cyclopropylmethyl)-6-[(3S)-3-methylmorpholin-4-yl]-9H-purin-2-yl}-4-methylpyrimidin-2-amine]	≤ 5	≤ 5	30 to 60
CC(C)Cn1c(N2CCN(C(=O)CO)CC2)nc2c(N3CCOC[C@@H]3C)nc(-c3cnc(N)nc3)nc21 [Example 130, 2-(4-{2-(2-Aminopyrimidin-5-yl)-9-isobutyl-6-[(3S)-3-methylmorpholin-4-yl]-9H-purin-8-yl}piperazin-1-yl)-2-oxoethanol]	≤ 5	≤ 5	30 to 60
CC(C)Cn1c(N2CCN(C(=O)[C@H](C)O)CC2)nc2c(N3CCOC[C@@H]3C)nc(-c3cnc(N)nc3)nc21 [Example 131, (2S)-1-(4-{2-(2-Aminopyrimidin-5-yl)-9-isobutyl-6-[(3S)-3-methylmorpholin-4-yl]-9H-purin-8-yl}piperazin-1-yl)-1-oxopropan-2-ol]	≤ 5	≤ 5	> 60
CC(C)Cn1c(N2CCN(C=O)CC2)nc2c(N3CCOC[C@@H]3C)nc(-c3cnc(N)nc3)nc21 [Example 132, 4-{2-(2-Aminopyrimidin-5-yl)-9-isobutyl-6-[(3S)-3-methylmorpholin-4-yl]-9H-purin-8-yl}piperazine-1-carboaldehyde]	≤ 5	≤ 5	> 60
